{"source": "patent US7745390B2", "about": "“Antimicrobial peptides” (priority 2005, dated 2010)", "key": {"[1]": {"system": "Salmonella", "type": "cell-based, S. typhimurium", "conditions": "pH 7.2", "summary_of_the_method": "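Peptides were diluted in 10 mM phosphate buffer, pH 7.2 with 0.03% LB and incubated with bacteria (~5×10^6 CFU/ml) for 3 h at 37 °C in microtiter wells. LB was then added, growth continued overnight, and OD 600 nm was read. MIC is the lowest concentration with no growth; IC50 gives 50% growth versus medium.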"}, "[2]": {"system": "bacterial strains", "test": "organism not typed", "type": "cell-based", "experimental": "(§1) Three preferred peptides G11.46, G12.21 and G14.15, discussed above, were further tested for antimicrobial efficacy under various conditions using the 10% FCS/DMEM assay as described under CFU assay. The incubation times with the bacteria and peptide was three hours, at which time the bacteria were diluted and plated on agar. […] The MIC for each compound is highlighted.\nTable 9 below repeats some data presented above in Tables 6, 7, and 8."}, "[3]": {"system": "candida albicans SC5314", "test": "Percent survival of Candida albicans in phosphate buffer", "type": "cell-based", "design": "dose or concentration left out as unconfirmed", "conditions": "37° C., 90 min. incubation", "source_text": "Germ tube formation is essential to Candida toxicity, so agents that prevent this (even in the absence of killing the organism) could have significant activity in vivo."}, "[4]": {"system": "E. coli", "test": "CFU assay in 10% FCS/DMEM", "type": "cell-based", "conditions": "3 hrs", "experimental": "(§2) The CFU assay is the “gold standard” for evaluating antibiotics. Briefly, bacteria are grown overnight in rich medium, such as LB, and then diluted and grown in log phase for 2-4 hours. Cultures are set up as above, with the initial culture media being 10 mM phosphate buffer/0.03% LB; DMEM or RPMI; or DMEM or RPMI plus 10% serum (fetal calf, human, or mouse). After various periods of time, but generally 3 hours or less, aliquots are removed, diluted in LB at various dilutions, and plated on LB agar plates. Plates are incubated overnight at 37° C. and counted on an automatic colony counter.\nas §1"}, "[5]": {"system": "S. aureus", "test": "Mouse wound model of luminescent S. aureus infection", "type": "in vivo, BALB/c mice", "source_text": "In this protocol, BALB/c mice of 4-6 weeks of age were exposed to wounds on their backs, then inoculated with an infection of S. aureus, which had 10^5 cfu per pocket (2×10^7 […] DMEM) The S. aureus had been transfected with a plasmid containing luciferase as well as the substrate for luciferase. Using a special camera, light is detected from living bacteria in the wound. The light intensity is converted to a color scale. Controls received no peptide, and the treatment group received peptide at the indicated dose. Animals were imaged at 1, 3, 6 and 24 hrs."}, "[6]": {"test": "Degree of helicity by circular dichroism", "type": "physicochemical", "experimental": "For designing analogues of the present sequences, as taught herein, the Table also presents data on the degree of helicity of the active peptides, as measured by circular dichroism. It should be noted that a number of the active peptides listed in the figure are not alpha helices at all. At least one peptide tested was considered to be a random coil, with no detectible secondary structure evident in the circular dichroism measurement.\nThe MIC values are for E. coli in 10 mM phosphate buffer. The peptides were derived by the inventors from granulysin helix 3. […] It contains an equal number of hydrophobic and positively charged amino acids, can adapt an αhelical structure, and is very amphipathic. In contrast, the remaining 3 peptides all retain activity in DMEM even in the presence of serum. These peptides contain more positive residues than hydrophobic residues. G12.21 contains 2 proline residues, G11.46 is based on a modification of the helix three sequence (RRVSRRFMRR) (SEQ ID NO: 91) with a 5 arginine extension at the NH2 terminus, and G14.15 includes loop 2/RRVSRRFMRR (SEQ ID NO: 91)."}, "[7]": {"system": "antibiotic resistant bacteria obtained from clinical isolates", "test": "Susceptibility of antibiotic resistant clinical isolates in DMEM with or without serum", "type": "cell-based", "experimental": "In addition to the data given above, the susceptibility of a panel of antibiotic resistant bacteria obtained from clinical isolates was tested. All of these are killed by the G11.46, G12.21, and G14.15 in DMEM with or without serum."}, "[8]": {"system": "bacteria", "test": "Activity in DMEM and RPMI media (lysis of bacteria)", "type": "cell-based", "conditions": "either 10 mM phosphate buffer or DMEM", "experimental": "as §2\nIn the column “Active in DMEM”, a blank means no activity. MAP stands for multiple antigenic peptide, where a number of identical peptide chains are synthesized and joined to a common core (like a dendrimer).\nThe peptides listed in Table 2 were tested in DMEM and RPMI, media that approximate blood and tissue conditions in vivo and those that were active under these conditions are listed in the last column (active in DMEM). […] No peptides that were all L-isomer peptides lysed bacteria in DMEM supplemented with serum.\nThe hydrophobic moment is a measure of amphipathicity and indicates how well the hydrophobic residues fall on one side of the helix while the hydrophilic residues fall on the opposite side is shown in column 7. This was determined using the Membrane Explorer Program (http://blanco.biomol.uci.edu/mpex/). A high number indicates a high hydrophobic moment. Column 8 again (like Table 2) indicates which of these peptides is active in DMEM."}}, "note": "Square brackets hold non-standard residues; d marks the D form. Peptide text beside a SMILES is read from it.", "data": [{"smiles": "CSCC[C@H](NC(=O)[C@H](Cc1ccccc1)NC(=O)[C@@H](CCCNC(=N)N)NC(=O)[C@@H](CCCNC(=N)N)NC(=O)[C@H](CO)NC(=O)[C@@H](NC(=O)[C@@H](CCCNC(=N)N)NC(=O)[C@@H](CCCNC(=N)N)NC(=O)[C@@H](CCCNC(=N)N)NC(=O)[C@@H](CCCNC(=N)N)NC(=O)[C@@H](CCCNC(=N)N)NC(=O)[C@@H](CCCNC(=N)N)NC(=O)[C@H](N)CCCNC(=N)N)C(C)C)C(=O)N[C@H](CCCNC(=N)N)C(=O)N[C@H](CCCNC(=N)N)C(=O)O", "note": "[Peptide G11.46, rrrrrrrVSrrFMrr] (H-[dR][dR][dR][dR][dR][dR][dR]VS[dR][dR]FM[dR][dR]-OH; N-terminus and C-terminus assumed)", "values": [{"measurement": "IC50", "setting": "[1]", "result": 210, "unit": "nM"}, {"measurement": "Salmonella MIC", "setting": "[1]", "result": 0.7, "unit": "µM"}, {"measurement": "MIC", "setting": "[2]; ATCC#25922, 3 h", "result": "0.32 to 0.63", "unit": "µM"}, {"measurement": "MIC", "setting": "[2]; ATCC#29213, 3 h", "result": "0.04 to 0.08", "unit": "µM"}, {"measurement": "MIC", "setting": "[2]; ATCC#53522, 3 h", "result": 0.02, "unit": "µM"}, {"measurement": "MIC", "setting": "[2]; SL1344, 3 h", "result": "0.63 to 1.25", "unit": "µM"}, {"measurement": "activity against candida albicans SC5314", "setting": "[3]", "result": "active"}, {"measurement": "% Survival (CFU Assay)", "setting": "[4]; 0.01 μM", "result": 98.89, "unit": "%"}, {"measurement": "% Survival (CFU Assay)", "setting": "[4]; 0.02 μM", "result": 166.22, "unit": "%"}, {"measurement": "% Survival (CFU Assay)", "setting": "[4]; 0.04 μM", "result": 132.25, "unit": "%"}, {"measurement": "% Survival (CFU Assay)", "setting": "[4]; 0.08 μM", "result": 89.24, "unit": "%"}, {"measurement": "% Survival (CFU Assay)", "setting": "[4]; 0.16 μM", "result": 31.77, "unit": "%"}, {"measurement": "% Survival (CFU Assay)", "setting": "[4]; 0.32 μM", "result": 2.02, "unit": "%"}, {"measurement": "% Survival (CFU Assay)", "setting": "[4]; 0.63 μM", "result": "<0.002", "unit": "%"}, {"measurement": "% Survival (CFU Assay)", "setting": "[4]; 1.25 μM", "result": "<0.002", "unit": "%"}, {"measurement": "light units from S. aureus in wound", "setting": "[5]; 25 μg and 100 μg, data not shown", "result": "significant reduction in light units"}, {"measurement": "light units from S. aureus in wound", "setting": "[5]; 100 μg, after 6 hrs.", "result": "light units approached levels obtained with the blank"}, {"measurement": "recovery of bacteria", "setting": "[5]; by 24 hours", "result": "some recovery of bacteria by 24 hours"}, {"measurement": "% α-helix", "setting": "[6]; Table 4", "result": 0, "unit": "%"}, {"measurement": "secondary structure", "setting": "[6]; aqueous solution or TFE where stated", "result": "random coils in aqueous solution or in TFE"}, {"measurement": "killing of antibiotic resistant clinical isolates", "setting": "[7]", "result": "killed"}, {"measurement": "lysis of bacteria and fungi", "setting": "[8]", "result": "lyse both gram negative bacteria and gram negative bacteria, as well as fungi"}]}]}
